This note sets out measurements from PMC5354670, “Blockade of the malignant phenotype by β-subunit selective noncovalent inhibition of immuno- and constitutive proteasomes” (Oncotarget, 2017).

For data set [1], the target named is human 20S immunoproteasome iCP, PA activity (β1) (Homo sapiens, UniProt P28065). The experiment in a line: Inhibition of PA activity of human iCP (substrate Z-LLE-βNA). As to conditions: for inhibition at 50 µM: pH 8, read-out: % inhibition at 50 μM PA, iCP; for ratio cCP/iCP, PA activity: IC50 cCP / IC50 iCP.
Procedure: (§7) They were assayed for in vitro inhibition of purified human cCP and iCP by measuring the hydrolysis of the β5 (ChT-L) substrate Suc-LLVY-AMC, β1 (PA) substrate Z-LLE-βNA, and β2 (T-L) substrate Boc-LRR-AMC in the presence of various concentrations of the tested molecules.
(§8) The experimental data are adjusted to equation 1 (c) or equation 2 (a, a’, b, b’, c’).
(§9) Purified human constitutive 20S proteasome cCP and human 20S immunoproteasome iCP from erythrocyte were obtained from Boston Biochem (Cambridge, USA). All fluorogenic substrates (Suc-LLVY-AMC, Boc-LRR-AMC, and Z-LLE-βNA) were obtained from Bachem (Weil am Rhein, Germany). […] Fluorescence was measured using a BMG Fluostar microplate reader (black 96-well microplates).
(§10) Substrates and compounds were previously dissolved in DMSO. The buffers were (pH 8.0): 20 mM Tris, 10% (v/v) glycerol, 0.01% (w/v) SDS, and 2% (v/v) DMSO (ChT-L and PA activities); 20 mM Tris, 10% (v/v) glycerol, 0.01% (w/v). The final iPR and cPR concentrations were 0.3 nM using 20 μM Suc-LLVY-AMC (ChT-L), 50 μM Boc-LRR-AMC (T-L) and 100 μM Z-LLE-βNA (PA). […] The enzyme and the inhibitors were incubated for 15 min before the measurement of the enzyme activity. Initial rates determined in control experiments (V0) were considered to be 100 % of the peptidase activity; initial rates (Vi) that were above 100 % in the presence of a tested compound were considered to be activations (expressed as activation factor), while initial rates below 100 % were considered to be inhibitions. […] The values of IC50 were calculated by fitting the experimental data to the equation 1 or equation 2, where nH is the Hill number.
The target of data set [2] is human constitutive 20S proteasome cCP, PA activity (β1) (Homo sapiens, UniProt P28072). The data set can be described thus: Inhibition of PA activity of human cCP (substrate Z-LLE-βNA). As to conditions: for inhibition at 50 µM: pH 8, read-out: % inhibition at 50 μM PA, cCP.
Procedure: as §7, §8, §9, §10
Data set [3] addresses human 20S immunoproteasome iCP, T-L activity (β2) (Homo sapiens, UniProt P40306). The experiment in a line: Inhibition of T-L activity of human iCP (substrate Boc-LRR-AMC). As to conditions: for fold induction at 50 µM: pH 8, read-out: x (activation factor) at 50 μM T-L, iCP.
Procedure: We decided to explore further their properties by testing their potential to inhibit human iCP versus cCP. They were assayed for in vitro inhibition of purified human cCP and iCP by measuring the hydrolysis of the β5 (ChT-L) substrate Suc-LLVY-AMC, β1 (PA) substrate Z-LLE-βNA, and β2 (T-L) substrate Boc-LRR-AMC in the presence of various concentrations of the tested molecules.
as §8
Purified human constitutive 20S proteasome cCP and human 20S immunoproteasome iCP from erythrocyte were obtained from Boston Biochem (Cambridge, USA). All fluorogenic substrates (Suc-LLVY-AMC, Boc-LRR-AMC, and Z-LLE-βNA) were obtained from Bachem (Weil am Rhein, Germany). Other reagents and solvents were purchased from commercial sources. Fluorescence was measured using a BMG Fluostar microplate reader (black 96-well microplates).
as §10
Data set [4] concerns the target human constitutive 20S proteasome cCP, T-L activity (β2) (Homo sapiens, UniProt Q99436). The data set can be described thus: Inhibition of T-L activity of human cCP (substrate Boc-LRR-AMC). As to conditions: for fold induction at 50 µM: pH 8, read-out: x (activation factor) at 50 μM T-L, cCP; for inhibition at 50 µM: pH 8, read-out: % inhibition at 50 μM T-L, cCP.
Procedure: as §7, §8, §9, §10
The target of data set [5] is human 20S immunoproteasome iCP, ChT-L activity (β5) (Homo sapiens, UniProt P28062). The data set can be described thus: Inhibition of ChT-L activity of human iCP (substrate Suc-LLVY-AMC). The conditions noted are these: for inhibition at 50 µM: pH 8, read-out: % inhibition at 50 μM ChT-L, iCP; for ratio cCP/iCP, ChT-L activity: IC50 cCP / IC50 iCP.
Procedure: as §7, §8, §9, §10
Data set [6] deals with human constitutive 20S proteasome cCP, ChT-L activity (β5) (Homo sapiens, UniProt P28074). The experiment in a line: Inhibition of ChT-L activity of human cCP (substrate Suc-LLVY-AMC). The conditions noted are these: for inhibition at 50 µM: pH 8, read-out: % inhibition at 50 μM ChT-L, cCP; for factor by which ChT-L activity of cCP is more efficiently inhibited than PA: PA vs ChT-L.
Procedure: as §7, §8, §9, §10

Data set [7] concerns MDA-MB-231 cells (breast cancer). The data set can be described thus: MTT cell viability assay, MDA-MB-231. The format is cell-based. The conditions noted are these: for cytotoxicity at higher doses: 48 h; for CC50: Homo sapiens, 48 h treatment, MTT, read-out: LC50 (the source's name). As for the experimental part:
(§1) We first analyzed the cytotoxic effects of B1f and B3 treatment on colon (CT-26) and breast cancer cells (MDA-MB-231 cells) using the MTT cell viability assay. B1f and B3 inhibited the viability of these cells in a dose-dependent manner after 48 h treatment. Higher doses of B1f and B3 lead to 100% cytotoxicity (Figure 4A). […] We next assessed the effect of B1f and B3 on the proliferation of these cells during 24h. […] Similarly, to evaluate whether these inhibitors can affect their invasion, tumor cells were incubated for 24 h in a microchemotaxis chamber pre-coated with collagen IV (Figure 4C) in the presence of the compounds B1f or B3.
(§2) Figure 4 Effect of compounds B1f and B3 on tumor cell proliferation and invasion A. CT-26 and MDA-MB 231 cells were treated with various concentrations of indicated compounds for 48h and cells viability was measured by MTT assay. B. Tumor cells were serum deprived overnight and then treated for 24 h with control media (None) or media containing compound B3 or B1f. Cell proliferation was assessed using Cell Titer96 non-radioactive cell proliferation assay. Results are shown as means ± S.E. of three experiments performed in triplicate. *P < 0.05. **P < 0.001. *** P < 0.0001. C. Indicated tumor cells were incubated in a microchemotaxis chamber pre-coated with collagen IV for cell invasion assay as described in the Materials and Methods section. The results are represented as the percentage of invading cells. Data are representative of 3 experiments and shown as mean ± S.E. (n=3 per group). **P < 0.001. *** P < 0.0001.
(§3) For the viability assay, CT-26 (colon cancer) and MDA-MB231 (breast cancer) cells were plated in triplicate on 96 wells plate (5.10^3/well). After treatment with indicated drugs, cells were incubated for 48 hours at 37°C and incubated with solution of 5 mg/ml of 3-(4,5-dimethylthiazol-2-yl)-2,5-diphenyltetrazolium bromide (MTT) tetrazolium substrate (Sigma) for 30 minutes at 37°C prior analysis on a microplate reader at 570. The LC50 value was defined as the drug concentration causing 50% cell death (LD = lethal dose) compared to growth of the untreated control cells. For cell proliferation, cells were plated in triplicate on 96 wells plate (5.10^3/well) under serum free conditions for 24 h. The starved cells were then incubated for 24h with fresh media containing the two selected compounds B1f and B3 that inhibit both ChT-L and PA activities of iCP and cCP. […] Proliferation level in cells was evaluated, as reported previously using the Cell Titer96 non-radioactive cell proliferation assay kit (Promega) according to manufacturer’s protocol

The test system of data set [8] is CT-26 cells (colon cancer). The experiment in a line: MTT cell viability assay, CT-26. Type of data set: cell-based. The conditions noted are these: for cytotoxicity at higher doses: CT-26 cells, 48 h; for CC50: Mus musculus, CT26 cells, 48 h treatment, MTT, read-out: LC50 (the source's name). The protocol: as §1, §2, §3
On the technique in general: Formazan colour is commonly taken as a measure of viable cells.

Data set [9] deals with CT-26 cells (colon cancer). The data set can be described thus: Cell Titer96 non-radioactive cell proliferation assay, CT-26. The format is cell-based. As to conditions: 10 μM, 24 h, vs control cells. As for the experimental part:
as §1
(§4) Figure 4 Effect of compounds B1f and B3 on tumor cell proliferation and invasion A. CT-26 and MDA-MB 231 cells were treated with various concentrations of indicated compounds for 48h and cells viability was measured by MTT assay. […] Cell proliferation was assessed using Cell Titer96 non-radioactive cell proliferation assay. […]
(§5) For the viability assay, CT-26 (colon cancer) and MDA-MB231 (breast cancer) cells were plated in triplicate on 96 wells plate (5.10^3/well). After treatment with indicated drugs, cells were incubated for 48 hours at 37°C and incubated with solution of 5 mg/ml of 3-(4,5-dimethylthiazol-2-yl)-2,5-diphenyltetrazolium bromide (MTT) tetrazolium substrate (Sigma) for 30 minutes at 37°C prior analysis on a microplate reader at 570. […]

For data set [10], the system named is MDA-MB-231 cells (breast cancer). The experiment in a line: Cell Titer96 non-radioactive cell proliferation assay, MDA-MB-231. The format is cell-based. The conditions noted are these: 10 μM, 24 h, vs control cells. The protocol:
as §1, §4, §5

Data set [11] concerns CT-26 cells (colon cancer). The experiment in a line: Cell invasion assay, microchemotaxis chamber pre-coated with collagen IV, CT-26. Type of data set: cell-based. The conditions noted are these: 10 μM, 24 h. The protocol:
as §1, §4
(§6) Cell invasion were determined using 24-well microchemotaxis chambers precoated with 7.5 μg collagen type IV (Becton Dickinson Labware), as previously described. […] Cell invasion were quantified by determination of the number of cells that migrated directly through the membrane toward the medium containing 10% serum that was used as a chemoattractant. […]

The test system of data set [12] is MDA-MB-231 cells (breast cancer). The experiment in a line: Cell invasion assay, microchemotaxis chamber pre-coated with collagen IV, MDA-MB-231. As to conditions: 10 μM, 24 h. Type of data set: cell-based. As for the experimental part: as §1, §4, §6

A word on the inhibition: it is the change of the read-out against control, counted positive when it falls. As a reminder, the IC50 is the concentration needed to halve the response being measured. A low value points to greater potency. As to `CC(C)Cc1ccc(S(=O)(=O)N2CCN(c3ccc([N+](=O)[O-])cc3)CC2)cc1` [Compound B1a], the inhibition at 50 µM in data set [1] is 25%; in data set [2], < 25%; in data set [5] it was < 25%; in [6] it was < 25%. In addition, in [3], the “cCP/iCP ratio for the IC50 values, T-L activity” value (“cCP/iCP ratio” for short) is 1.4. In [4], this molecule showed an IC50 of 10.3 µM.

As to `Cc1ccccc1N1CCN(S(=O)(=O)c2ccc(C(C)(C)C)cc2)CC1` [Compound B1b], the inhibition at 50 µM in data set [1], in [2], in data set [5] and in data set [6] was < 25% each time. Further, the IC50 in [3] is 2.6 ± 0.4 µM; in data set [4], 12 µM. In addition, the “cCP/iCP ratio” value in [3] was determined as 4.6.

Take `CC(C)(C)c1ccc(S(=O)(=O)N2CCN(c3ccc(Cl)cc3[N+](=O)[O-])CC2)cc1` [Compound B1c]: the inhibition at 50 µM in data set [1], in data set [2], in [5] and in data set [6] was < 25% throughout. Further, the figures for the IC50 in data set [3] and in data set [4] were 3.3 ± 0.4 µM and 8.1 µM, respectively. Further, in [3], the “cCP/iCP ratio” value is listed as 2.4.

`O=[N+]([O-])c1ccc(N2CCN(S(=O)(=O)c3ccc(Cl)cc3)CC2)cc1Sc1ccccn1` [Compound B1d]: the inhibition at 50 µM in [2] was 46%; in [6], < 25%. For the same molecule, in data set [4], the fold induction at 50 µM stood at 4.7.

As for `Cc1ccc(S(=O)(=O)N2CCN(c3ccc([N+](=O)[O-])c(SCc4ccco4)c3)CC2)cc1` [Compound B1e], in data set [1], the IC50 is 3.3 ± 0.3 µM and the “ratio cCP/iCP, PA activity” value is recorded as 1.3. Half-maximal inhibition in [2] (IC50) required 4.2 µM. Also, in [3], the fold induction at 50 µM came to 3. Moreover, in data set [4], the inhibition at 50 µM was < 25%. Besides, in [5], it took 5.5 ± 0.3 µM to reach half-maximal inhibition (IC50) and the “ratio cCP/iCP, ChT-L activity” value stood at 0.55. Also, in data set [6], it took 2.5 µM to reach half-maximal inhibition (IC50) and the “factor by which ChT-L activity of cCP is more efficiently inhibited than PA” value was 1.7.

As for `O=[N+]([O-])c1ccc(N2CCN(S(=O)(=O)c3ccc(Cl)cc3)CC2)cc1SCc1ccco1` [Compound B1f], the “cytotoxicity at higher doses” value in data set [7] and in data set [8] was 100% throughout. Besides, the figures for the CC50 in data set [7] and in data set [8] were 45.8 ± 5.2 µM and 24.4 ± 8.6 µM, respectively. The effect on proliferation entry in data set [9] and in data set [10] was “significant reduction in their proliferation” each time. Also, the effect on invasion entry in data set [11] and in [12] was “clearly decreased their ability to invade” each time. In addition, the IC50 in [1] is 3.7 ± 0.2 µM; in [2], 7.4 µM; in [5], 5.8 ± 0.2 µM; in data set [6], 3.2 µM. In addition, in data set [1], the “ratio cCP/iCP, PA activity” value is given as 2. The fold induction at 50 µM in [3] was 3. In addition, the inhibition at 50 µM in data set [4] is < 25%. Further, in data set [5], the “ratio cCP/iCP, ChT-L activity” value was found to be 0.45. The “factor by which ChT-L activity of cCP is more efficiently inhibited than PA” value in data set [6] is 2.3.

Consider `CC(C)(C)c1ccc(S(=O)(=O)N2CCN(c3ccc([N+](=O)[O-])c(NCc4ccccn4)c3)CC2)cc1` [Compound B1g], for which the values for the IC50 in data set [2] and in [6] were 13.9 ± 1.4 µM and 24.6 ± 3.5 µM, respectively. Also, the inhibition at 50 µM in [4] is < 25%.

As for `CC(=O)Nc1ccc(S(=O)(=O)N2CCN(c3ccc([N+](=O)[O-])c(NCCN4CCOCC4)c3)CC2)cc1` [Compound B1h], the inhibition at 50 µM was 45% in data set [2] and < 25% in [4].

As to `COc1ccc(S(=O)(=O)N2CCN(c3ccc([N+](=O)[O-])c(NCC(C)(C)C)c3)CC2)cc1OC` [Compound B1i], the inhibition at 50 µM in data set [2], in data set [4] and in data set [6] was < 25% throughout.

`O=[N+]([O-])c1ccc(N2CCN(S(=O)(=O)c3ccc4ccccc4c3)CC2)cc1SCCN1CCOCC1` [Compound B2a] gave an IC50 in data set [2] of 31.2 ± 1 µM. The inhibition at 50 µM in data set [4] is < 25%.

As to `O=[N+]([O-])c1ccc(N2CCN(S(=O)(=O)c3ccc4ccccc4c3)CC2)cc1` [Compound B2b], the inhibition at 50 µM in data set [2] is 50%; in data set [6], 58.9%. In addition, the fold induction at 50 µM in data set [4] came to 4.5.

Regarding `O=C(COc1ccc2ccccc2c1)N1CCN(S(=O)(=O)c2ccc([N+](=O)[O-])cc2)CC1` [Compound B3], the “cytotoxicity at higher doses” value in [7] and in data set [8] was 100% each time. In addition, the figures for the CC50 in data set [7] and in data set [8] were 15.4 ± 4.7 µM and 26.4 ± 1.7 µM, respectively. Further, the effect on proliferation result in [9] and in data set [10] was “significant reduction in their proliferation” throughout. Also, the effect on invasion entry in data set [11] and in data set [12] was “clearly decreased their ability to invade” in each case. The IC50 in data set [1] is 7.1 ± 0.2 µM; in [2] it was 8.1 µM; in data set [5], 6.7 ± 0.2 µM; in data set [6] it was 6.5 µM. Moreover, the inhibition at 50 µM was < 25% in [3] (pH 8, read-out: % inhibition at 50 μM T-L, iCP) and < 25% in data set [4].

Consider `O=[N+]([O-])c1ccc(N2CCN(S(=O)(=O)Cc3ccccc3)CC2)cc1NCCN1CCOCC1` [Compound B4], for which the inhibition at 50 µM in [2], in data set [4] and in data set [6] was < 25% each time.
